From PubChem BioAssay (NCI)
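Exposure lasted 48 hours, with cells grown in 96-well plates and compounds tested at five concentrations. At the TGI there is no net growth.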

How the values were obtained:
Test in all cases: inhibition of tumour cell growth, NCI panel, 48 h
DMS 114 small cell lung = system: DMS 114 small cell lung
HCT-116 colon = system: HCT-116 colon
COLO 205 colon = system: COLO 205 colon
DU-145 prostate = system: DU-145 prostate
IGROV1 ovarian = system: IGROV1 ovarian

CC1(C)OP23(NC(=O)OC2(C(F)(F)F)c2ccccc2O3)OC1(C)C (stereo not given)
TGI (DMS 114 small cell lung): > 100 µM | TGI (HCT-116 colon): > 100 µM

O=C(CCCn1cnc([N+](=O)[O-])n1)NCCn1ccnc1[N+](=O)[O-]
TGI (COLO 205 colon): > 100 µM | TGI (DU-145 prostate): > 100 µM | TGI (IGROV1 ovarian): > 100 µM
